{"source": "patent US20230187019A1", "about": "“METHOD FOR DETERMINING A DRUG COMBINATION VIA A BLOCKING MODEL OF A MULTI-SITE-TARGETED PROTEIN AND APPLICATIONS THEREOF” (National Tsing Hua University, priority 2021, published 2023)", "key": {"[1]": {"system": "AK4.4 pancreatic ductal adenocarcinoma (PDAC) xenograft", "conditions": "dose of 20 mg/kg, I.P."}, "[2]": {"system": "AK4.4", "assay": "Cell viability assay (MTT) on AK4.4", "conditions": "for IC50: Mus musculus", "description": "(§1) The cell viability was measured using the MTT assay or CellTiter-Glo Luminescent Cell Viability Assay. For MTT assay, mouse AK4.4 (1,000 cells/well) and human AsPC-1 (1,500 cells/well) cells were seeded in 96-well plates and cultured in serum-free medium (SFM) containing indicated concentrations of drugs for 48 hours. To measure the cell viability, 15 μL MTT (3-(4,5-dimethylthiazol-2-yl)-2,5-diphenyltetrazolium bromide, 5 mg/mL in PBS) was added in each well and kept at 37° C. for three hours. The precipitated crystals were then dissolved in 50 μL DMSO, and the absorbance at 570 nm was measured by Multiskan GO Microplate Spectrophotometer (Thermo Scientific, USA) to estimate the cell survival rate. To quantify the drug combination effect, the combination index was calculated when the cell viability was reduced by 50% using the following Equation (1):"}, "[3]": {"conditions": "in vivo"}, "[4]": {"system": "HCT116", "assay": "Cell viability assay on HCT116", "assay_type": "cell-based, human"}, "[5]": {"system": "AsPC-1", "assay": "Cell viability assay (MTT) on AsPC-1", "description": "as §1"}, "[6]": {"biological_target": "T1, ATG4B (Homo sapiens, UniProt Q9Y4P1)", "T1 sequence (Q9Y4P1 whole entry, looked up)": "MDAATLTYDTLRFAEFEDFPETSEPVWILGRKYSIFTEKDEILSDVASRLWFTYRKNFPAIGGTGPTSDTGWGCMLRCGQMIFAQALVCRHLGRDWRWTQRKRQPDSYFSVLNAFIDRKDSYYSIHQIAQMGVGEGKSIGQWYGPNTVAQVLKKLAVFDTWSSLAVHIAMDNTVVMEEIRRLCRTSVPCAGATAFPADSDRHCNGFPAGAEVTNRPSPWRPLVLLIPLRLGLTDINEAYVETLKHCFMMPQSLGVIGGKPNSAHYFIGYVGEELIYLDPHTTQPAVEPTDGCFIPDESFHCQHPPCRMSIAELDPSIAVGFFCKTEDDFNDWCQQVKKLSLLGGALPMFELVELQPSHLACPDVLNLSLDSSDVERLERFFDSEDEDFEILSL", "assay": "ATG4B activity reporter assay (cleaved PLA2 fluorescence)", "assay_type": "biochemical", "set-up": "host or cells: in silico model from PDB 2Z0D", "description": "The inhibitory effect of the three designed peptides on ATG4B activity was tested using ATG4B cleavage assays and ATG4B activity reporter assays. […] The full-length LC3B fusion protein was used as the negative control and as the positive control when also incubated with ATG4B (FIG. 22A). […] A peptide that can inhibit ATG4B activity will weaken the fluorescence signal produced by the cleaved PLA2."}, "[7]": {"biological_target": "T1, ATG4B", "assay": "In vitro cleavage assay of ATG4B catalytic activity (western blot of tagged LC3B)", "assay_type": "biochemical", "description": "(§2) The reagents were incubated at 37° C. for 30 minutes and then subjected to western blotting. The intensity of the band in the gel was calculated by using Image Studio Lite from LI-COR Biosciences or ImageJ.\n(§3) The full-length LC3B fusion protein was used as the negative control and as the positive control when also incubated with ATG4B (FIG. 22A). […] A peptide that can inhibit ATG4B activity will weaken the fluorescence signal produced by the cleaved PLA2."}, "[8]": {"biological_target": "T2, ATG4B (Homo sapiens, UniProt Q9Y4P1)", "assay": "In vitro cleavage assay of ATG4B catalytic activity (western blot of tagged LC3B)", "assay_type": "biochemical", "conditions": "10 μM; read-out: inhibition on ATG4B's catalytic activity", "description": "as §2, §3"}, "[9]": {"biological_target": "T2, ATG4B", "assay": "ATG4B enzyme activity assay by S-tag-based immunoblotting", "assay_type": "biochemical", "conditions": "read-out: inhibition of ATG4B catalysis", "excerpt": "Protein expression and purification for the study of prediction of the allosteric sites in ATG4B Human ATG4B with N-terminal 6xHis-tag and human LC3B with both N-terminal 6xHis-tag and C-terminal S-tag were cloned into pETDuet-1 expression plasmids as previously described (Shu, C W et al., 2010, Autophagy 6, 936-947), subsequently transformed into E. coli BL21 (ECOS 21, Yeastern Biotech Co., FYE207-40VL). A single colony harboring the correctly in-frame inserted gene was inoculated into an overnight culture that was then diluted 100-fold in fresh Luria-Bertani broth with 50 μg/mL ampicillin for growing at 37° C. with 200 rpm agitation for 2 to 3 hours until the optical density of the culture at 600 nm reaches 0.4 (around 3×10^8 cells/mL). […]\nThe expression cell culture was harvested by 12,000×g centrifugation at 4° C. for 20 minutes, and the cell pellets of 1 liter broth were resuspended in a 10 mL lysis buffer (50 mM Tris-HCl, pH 7.4, 300 mM NaCl, 20 mM imidazole). […] The protein purity was verified >90% by Coomassie blue staining on SDS-PAGE, and the quantity was measured by bicinchoninic acid assay.\nATG4B enzyme activity assay was analyzed by immunoblotting. […] The intensities of remaining substrate LC3B after enzymatic cleavage were quantified by the software ImageJ."}, "[10]": {"system": "shATG4B/HCT116", "assay": "Cell viability assay on shATG4B/HCT116 (ATG4B silencing strain)", "assay_type": "cell-based, human", "conditions": "20 μM drug, S strain"}, "[11]": {"system": "shCtrl/HCT116", "assay": "Cell viability assay on shCtrl/HCT116 (control strain)", "assay_type": "cell-based, human", "conditions": "Homo sapiens, HCT-116, remaining viability, 20 μM drug, C strain; read-out: shCtrl/HCT116 Cell Viability"}, "[12]": {"biological_target": "LC3B substrate of the ATG4B activity reporter assays (cleavage releases PLA2), Q9GZQ8", "assay": "cell-based or functional assay"}, "[13]": {"conditions": "Tc concentration for 50% reduction of viability in combination with 0.50 μM Mx"}, "[14]": {"conditions": "Tc concentration for 50% reduction of viability in combination with 1.00 μM Mx"}, "[15]": {"conditions": "Tc concentration for 50% reduction of viability in combination with 2.5 μM Vb"}, "[16]": {"conditions": "Tc concentration for 50% reduction of viability in combination with 5 μM Vb"}, "[17]": {"conditions": "Tc concentration for 50% reduction of viability in combination with 10 μM Vb"}, "[18]": {"conditions": "remaining viability, 20 μM drug, normalized by blank control, three repeats"}}, "note": "Where “and” joins values, the source holds several entries; their conditions need not be identical. Equal entries are not always repeated. Where two headings read alike, the source gives them in different places.", "data": [{"molecule": "Clc1ccc(C(Cn2ccnc2)OCc2ccsc2Cl)c(Cl)c1", "note": "(stereo not drawn) [tioconazole]", "values": [{"measurement": "tumor size measured on day 16 versus control group", "setting": "[1]", "result": "less than half of the tumor size in the control group"}, {"measurement": "IC50", "setting": "[2]; read-out: IC50, Tc, tioconazole alone, AK4.4 (Table 8)", "result": 14, "unit": "µM"}, {"measurement": "IC50", "setting": "[2]; read-out: IC50, Tc, tioconazole alone, AK4.4 (Table 11)", "result": 12.5, "unit": "µM"}, {"measurement": "IC50", "setting": "[2]; read-out: IC50, Tc, tioconazole alone, AK4.4 (Table 12)", "result": 13, "unit": "µM"}, {"measurement": "CTc, 50", "setting": "[2]; Tc concentration for 50% reduction of viability in combination with 0.05 μM Pn", "result": 12.31, "unit": "µM"}, {"measurement": "CTc, 50", "setting": "[2]; Tc concentration for 50% reduction of viability in combination with 0.1 μM Pn", "result": 11.85, "unit": "µM"}, {"measurement": "CTc, 50", "setting": "[2]; Tc concentration for 50% reduction of viability in combination with 0.25 μM Pn", "result": 5.86, "unit": "µM"}, {"measurement": "CTc, 50", "setting": "[2]; [13]", "result": 13.42, "unit": "µM"}, {"measurement": "CTc, 50", "setting": "[2]; Tc concentration for 50% reduction of viability in combination with 0.5 μM Pn", "result": 0.17, "unit": "µM"}, {"measurement": "CTc, 50", "setting": "[2]; [14]", "result": 4.21, "unit": "µM"}, {"measurement": "CTc, 50", "setting": "[2]; [15]", "result": 12.07, "unit": "µM"}, {"measurement": "CTc, 50", "setting": "[2]; [16]", "result": 8.43, "unit": "µM"}, {"measurement": "CTc, 50", "setting": "[2]; [17]", "result": 5.88, "unit": "µM"}, {"measurement": "liver weight, % of mouse body weight", "setting": "[3]", "result": 5.69, "unit": "%"}, {"measurement": "increase in the liver (relative organ weight)", "setting": "[3]; mouse", "result": 8, "unit": "%"}, {"measurement": "increase in triglyceride as compared to the control", "setting": "[3]; mouse", "result": 25, "unit": "%"}, {"measurement": "triglyceride", "setting": "[3]; mouse", "result": 198.2, "unit": "mg/dL"}, {"measurement": "decrease of cell viability of HCT116", "setting": "[4]; human, 10 μM", "result": 33, "unit": "%"}, {"measurement": "IC50", "setting": "[5]; Homo sapiens, ASPC1, read-out: IC50, Tc, tioconazole alone, AsPC-1 (Table 9)", "result": 13.5, "unit": "µM"}, {"measurement": "IC50", "setting": "[5]; Homo sapiens, ASPC1, read-out: IC50, Tc, tioconazole alone, AsPC-1 (Table 13)", "result": 9.61, "unit": "µM"}, {"measurement": "CTc, 50", "setting": "[5]; [13]", "result": 8.61, "unit": "µM"}, {"measurement": "CTc, 50", "setting": "[5]; [14]", "result": 7.83, "unit": "µM"}, {"measurement": "CTc, 50", "setting": "[5]; Tc concentration for 50% reduction of viability in combination with 1.25 μM Mx", "result": 5.65, "unit": "µM"}, {"measurement": "CTc, 50", "setting": "[5]; [15]", "result": 8.14, "unit": "µM"}, {"measurement": "CTc, 50", "setting": "[5]; [16]", "result": 6.32, "unit": "µM"}, {"measurement": "CTc, 50", "setting": "[5]; [17]", "result": 5.21, "unit": "µM"}]}, {"molecule": "Ac-YDTLRFAEF-NH2 [N-term-9]", "values": [{"measurement": "inhibition to ATG4B activity at lower peptide concentration", "setting": "[6]; 1 μM peptide", "result": "maintained"}, {"measurement": "inhibition to ATG4B activity", "setting": "[6]; ATG4B activity reporter assays, 10 μM peptide", "result": "~25", "unit": "%"}]}, {"molecule": "Ac-YDTLGIF-NH2 [N-term-7]", "values": [{"measurement": "inhibition to ATG4B activity at lower peptide concentration", "setting": "[7]; 1 μM peptide", "result": "maintained"}, {"measurement": "inhibition to ATG4B activity", "setting": "[7]; ATG4B cleavage assays, 10 μM peptide", "result": "about 30%"}]}, {"molecule": "CO/N=C1\\C[C@]2(C[C@@H]3C[C@@H](C/C=C(\\C)C[C@@H](C)/C=C/C=C4\\CO[C@@H]5[C@H](O)C(C)=C[C@@H](C(=O)O3)[C@]45O)O2)O[C@H](/C(C)=C/C(C)C)[C@H]1C", "note": "[Moxidectin]", "values": [{"measurement": "inhibition at 10 µM", "setting": "[8]", "result": 38, "unit": "%"}, {"measurement": "IC50", "setting": "[2]; read-out: IC50, Mx, moxidectin alone, AK4.4 (Table 12)", "result": 1.07, "unit": "µM"}, {"measurement": "IC50", "setting": "[2]; read-out: IC50, Mx, moxidectin alone, AK4.4 (Table 14)", "result": 0.87, "unit": "µM"}, {"measurement": "CMx, 50", "setting": "[2]; Mx concentration in combination with Tc for a 50% reduction of the cell viability, listed as Mx", "result": "0.50 µM and 1.00 µM"}, {"measurement": "CMx, 50", "setting": "[2]; Mx concentration in combination with Vb for a 50% reduction of the cell viability", "result": 0.50, "unit": "µM"}, {"measurement": "inhibition at 10 µM", "setting": "[9]; 10 μM", "result": 36, "unit": "%"}, {"measurement": "inhibition at 20 µM", "setting": "[9]; 20 μM", "result": "> 80", "unit": "%"}, {"measurement": "viability at 20 µM", "setting": "[10]; Homo sapiens, HCT-116, remaining viability, read-out: shATG4B/HCT116 Cell Viability", "result": 1, "unit": "%"}, {"measurement": "shATG4B/HCT116 Cell Viability", "setting": "[10]; remaining viability", "result": "0.9 ± 0.1", "unit": "%"}, {"measurement": "viability at 20 µM", "setting": "[11]", "result": 1, "unit": "%"}, {"measurement": "viability at 20 µM", "setting": "[4]; Homo sapiens, HCT-116, remaining viability, 20 μM drug, normalized by blank control, three repeats, read-out: HCT116 Cell Viability", "result": 2, "unit": "%"}, {"measurement": "HCT116 Cell Viability", "setting": "[4]; [18]", "result": "1.7 ± 0.1", "unit": "%"}, {"measurement": "viability at 20 µM", "setting": "[5]; Homo sapiens, ASPC1, read-out: AsPC-1 Cell Viability, remaining viability, 20 μM drug, normalized by blank control, three repeats", "result": 8, "unit": "%"}, {"measurement": "IC50", "setting": "[5]; Homo sapiens, ASPC1, read-out: IC50, Mx, moxidectin alone, AsPC-1 (Table 13)", "result": 1.38, "unit": "µM"}, {"measurement": "IC50", "setting": "[5]; Homo sapiens, ASPC1, read-out: IC50, Mx, moxidectin alone, AsPC-1 (Table 15)", "result": 1.24, "unit": "µM"}, {"measurement": "CMx, 50", "setting": "[5]; Mx concentration in combination with Vb for a 50% reduction of the cell viability, listed as Mx", "result": "0.50 µM and 1.00 µM"}, {"measurement": "AsPC-1 Cell Viability", "setting": "[5]; [18]", "result": "7.8 ± 0.8", "unit": "%"}]}, {"molecule": "Ac-YDTLRFAEF-NH2", "note": "[N-term-9 (Ac-…-NH2)]", "values": [{"measurement": "inhibition to ATG4B activity (ATG4B activity reporter assays)", "setting": "[12]", "result": 25, "unit": "%"}]}]}
